Experimental data as given in publication PMC4859410 (Pharmacogenetics and genomics, 2010).

Experiments:
Assay type in all cases: in vitro ADME
OATP1A2 = biological target: T1, OATP1A2 (Homo sapiens, UniProt P46721); experiment: Drug uptake in X. laevis oocytes injected with SLCO1A2; settings: for Drug uptake, OATP1A2: OATP1A2 cRNA injected oocytes; for Drug uptake, OATP1A2 / Drug uptake, Water: 1 µM (darunavir 3 µM), 18°C, 1hr, mean ± SD; for Drug uptake, Water: water injected control oocytes (Table 1); for Accumulation in SLCO1A2 cRNA injected oocytes compared to water injected control oocytes (in words): in the presence and in the absence of 2% HSA; for Ratio (fold increase in OATP1A2 cRNA injected oocytes compared to water injected oocytes): * = P < 0.05
T1 sequence (P46721 1-670): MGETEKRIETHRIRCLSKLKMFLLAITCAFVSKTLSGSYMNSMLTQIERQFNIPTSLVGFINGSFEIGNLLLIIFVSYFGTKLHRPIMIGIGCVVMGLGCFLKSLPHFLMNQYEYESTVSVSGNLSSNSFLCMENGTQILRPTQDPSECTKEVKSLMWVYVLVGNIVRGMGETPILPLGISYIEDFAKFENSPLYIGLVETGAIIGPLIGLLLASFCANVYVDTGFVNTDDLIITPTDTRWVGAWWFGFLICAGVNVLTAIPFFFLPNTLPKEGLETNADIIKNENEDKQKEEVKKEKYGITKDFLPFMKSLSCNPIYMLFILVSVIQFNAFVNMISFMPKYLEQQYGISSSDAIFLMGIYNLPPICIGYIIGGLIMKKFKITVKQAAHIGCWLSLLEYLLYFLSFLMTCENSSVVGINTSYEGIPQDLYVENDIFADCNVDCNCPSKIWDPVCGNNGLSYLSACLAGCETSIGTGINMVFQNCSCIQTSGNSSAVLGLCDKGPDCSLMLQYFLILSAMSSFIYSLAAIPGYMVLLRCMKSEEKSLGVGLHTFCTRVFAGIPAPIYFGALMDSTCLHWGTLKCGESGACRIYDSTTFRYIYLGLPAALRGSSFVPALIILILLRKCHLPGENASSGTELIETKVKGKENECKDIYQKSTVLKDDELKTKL

OATP1B1 = biological target: T2, OATP1B1 (Homo sapiens, UniProt Q9Y6L6); experiment: Drug uptake in X. laevis oocytes injected with SLCO1B1; settings: for Drug uptake, OATP1B1: OATP1B1 cRNA injected oocytes; for Drug uptake, OATP1B1 / Drug uptake, Water: 1 µM (darunavir 3 µM), 18°C, 1hr, mean ± SD; for Drug uptake, Water: water injected control oocytes (Table 2); for Accumulation in SLCO1B1 cRNA injected oocytes compared to water injected control oocytes (in words): in the presence and in the absence of 2% HSA; for Ratio (fold increase in OATP1B1 cRNA injected oocytes compared to water injected oocytes): * = P < 0.05
T2 sequence (Q9Y6L6 1-691): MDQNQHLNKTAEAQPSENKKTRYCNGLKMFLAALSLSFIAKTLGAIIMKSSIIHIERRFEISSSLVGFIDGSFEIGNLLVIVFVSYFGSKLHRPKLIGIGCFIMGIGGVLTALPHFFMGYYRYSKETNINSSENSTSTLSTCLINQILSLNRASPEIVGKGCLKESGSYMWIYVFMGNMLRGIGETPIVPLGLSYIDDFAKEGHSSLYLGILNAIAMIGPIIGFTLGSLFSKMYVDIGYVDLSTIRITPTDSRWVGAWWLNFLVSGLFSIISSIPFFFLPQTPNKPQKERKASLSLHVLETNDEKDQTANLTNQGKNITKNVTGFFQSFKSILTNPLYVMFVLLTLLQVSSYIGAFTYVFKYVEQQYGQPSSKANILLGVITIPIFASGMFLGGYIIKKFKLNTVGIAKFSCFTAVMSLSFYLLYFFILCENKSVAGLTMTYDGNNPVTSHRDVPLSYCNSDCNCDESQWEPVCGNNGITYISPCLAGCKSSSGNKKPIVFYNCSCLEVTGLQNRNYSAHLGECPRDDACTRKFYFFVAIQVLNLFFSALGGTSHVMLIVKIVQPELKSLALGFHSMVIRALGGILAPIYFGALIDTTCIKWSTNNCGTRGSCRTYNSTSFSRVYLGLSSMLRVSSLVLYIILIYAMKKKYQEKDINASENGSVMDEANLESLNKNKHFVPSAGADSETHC

OATP1B3 = biological target: T3, OATP1B3 (Homo sapiens, UniProt Q9NPD5); experiment: Drug uptake in X. laevis oocytes injected with SLCO1B3; settings: without human serum albumin; for Drug uptake, OATP1B3: OATP1B3 cRNA injected oocytes; for Drug uptake, OATP1B3 / Drug uptake, Water: 1 µM (darunavir 3 µM, performed once), 18°C, 1hr, mean ± SD; for Drug uptake, Water: water injected control oocytes (Table 3); for Ratio (fold increase in OATP1B3 cRNA injected oocytes compared to water injected oocytes): * = P < 0.05
T3 sequence (Q9NPD5 1-702): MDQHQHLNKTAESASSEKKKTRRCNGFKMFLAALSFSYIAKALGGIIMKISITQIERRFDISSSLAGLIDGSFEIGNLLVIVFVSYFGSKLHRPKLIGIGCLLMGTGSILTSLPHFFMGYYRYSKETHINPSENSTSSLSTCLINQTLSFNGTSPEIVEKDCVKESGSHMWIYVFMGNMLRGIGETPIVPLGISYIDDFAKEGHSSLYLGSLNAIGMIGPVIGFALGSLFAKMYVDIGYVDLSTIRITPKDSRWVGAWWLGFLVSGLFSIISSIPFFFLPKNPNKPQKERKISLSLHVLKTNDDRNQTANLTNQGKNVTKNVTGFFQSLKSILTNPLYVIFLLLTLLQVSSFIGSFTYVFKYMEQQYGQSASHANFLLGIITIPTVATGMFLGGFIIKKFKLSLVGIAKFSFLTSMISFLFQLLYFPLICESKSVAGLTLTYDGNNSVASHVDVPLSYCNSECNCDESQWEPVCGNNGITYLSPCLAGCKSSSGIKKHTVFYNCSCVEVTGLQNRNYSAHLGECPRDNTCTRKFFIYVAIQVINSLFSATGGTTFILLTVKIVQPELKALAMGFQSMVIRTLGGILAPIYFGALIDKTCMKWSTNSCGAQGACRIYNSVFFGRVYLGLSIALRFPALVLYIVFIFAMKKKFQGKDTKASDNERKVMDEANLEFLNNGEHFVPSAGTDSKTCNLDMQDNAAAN

SMILES	Drug uptake, OATP1A2 (OATP1A2; with 2% human serum albumin) [pmol/oocyte]	Drug uptake, OATP1A2 (OATP1A2; without human serum albumin) [pmol/oocyte]	Drug uptake, Water (OATP1A2; with 2% human serum albumin) [pmol/oocyte]	Drug uptake, Water (OATP1A2; without human serum albumin) [pmol/oocyte]	Drug uptake, OATP1B1 (OATP1B1; with 2% human serum albumin) [pmol/oocyte]	Drug uptake, OATP1B1 (OATP1B1; without human serum albumin) [pmol/oocyte]	Drug uptake, Water (OATP1B1; with 2% human serum albumin) [pmol/oocyte]	Drug uptake, Water (OATP1B1; without human serum albumin) [pmol/oocyte]	Drug uptake, OATP1B3 (OATP1B3) [pmol/oocyte]	Drug uptake, Water (OATP1B3) [pmol/oocyte]	Accumulation in SLCO1A2 cRNA injected oocytes compared to water injected control oocytes (in words) (OATP1A2)	Ratio (fold increase in OATP1A2 cRNA injected oocytes compared to water injected oocytes) (OATP1A2; with 2% human serum albumin)	Ratio (fold increase in OATP1A2 cRNA injected oocytes compared to water injected oocytes) (OATP1A2; without human serum albumin)	Accumulation in SLCO1B1 cRNA injected oocytes compared to water injected control oocytes (in words) (OATP1B1)	Ratio (fold increase in OATP1B1 cRNA injected oocytes compared to water injected oocytes) (OATP1B1; with 2% human serum albumin)	Ratio (fold increase in OATP1B1 cRNA injected oocytes compared to water injected oocytes) (OATP1B1; without human serum albumin)	Accumulation in SLCO1B3 cRNA injected oocytes compared to water injected control (in words) (OATP1B3)	Ratio (fold increase in OATP1B3 cRNA injected oocytes compared to water injected oocytes) (OATP1B3)
CC(C)CN(C[C@@H](O)[C@H](Cc1ccccc1)NC(=O)O[C@H]1CO[C@H]2OCC[C@H]21)S(=O)(=O)c1ccc(N)cc1 [Darunavir, darunavir]	2.56 ± 0.78	4.32 ± 0.75	0.96 ± 0.37	2.18 ± 0.40	2.14 ± 0.82	4.13 ± 0.40	0.72 ± 0.18	2.12 ± 0.55	5.41	3.29								
O=C1Nc2ccc(Cl)cc2[C@@](C#CC2CC2)(C(F)(F)F)O1 [Efavirenz, efavirenz]	1.63 ± 0.24	10.3 ± 2.90	1.47 ± 0.28	12.6 ± 2.49	1.51 ± 0.12	16.0 ± 4.17	1.46 ± 0.21	15.9 ± 1.70	18.21 ± 6.21	16.56 ± 6.84	No significant increase	1.11	0.81	No significant increase	1.03	1.00	No significant increase	1.10
Cc1ccnc2c1NC(=O)c1cccnc1N2C1CC1 [Nevirapine, nevirapine]	2.17 ± 0.26	2.92 ± 0.59	2.23 ± 0.93	2.65 ± 0.54	2.01 ± 0.40	2.26 ± 0.20	1.80 ± 0.46	2.14 ± 0.22	3.12 ± 0.47	2.98 ± 0.59	No significant increase	0.97	1.10	No significant increase	1.12	1.06	No significant increase	1.05
C[C@]12CC[C@@H]3c4ccc(OS(=O)(=O)O)cc4CC[C@H]3[C@@H]1CCC2=O [estrone-3-sulphate]	0.35 ± 0.15	2.02 ± 0.52	0.10 ± 0.03	0.19 ± 0.05	0.15 ± 0.03	0.51 ± 0.17	0.08 ± 0.03	0.16 ± 0.04	0.50 ± 0.20	0.21 ± 0.01	significant increase in accumulation	3.55 *	10.9 *	significant increase in accumulation	1.90 *	3.21 *	trend towards increased accumulation	
